Test results published in US12358932B2, “Chemical compounds” (BORAH, INC., priority 2019, dated 2025).

The molecules below were run on JAK (assay: Biochemical Kinase Assay Protocol (JAK)). Details: compared to compounds of the disclosure.
Method: Biochemical Kinase Assay Protocol (JAK, TrkA, Syk, Tyk2)
Reagent: Base Reaction buffer; 20 mM Hepes (pH 7.5), 10 mM MgCl2, 1 mM EGTA, 0.02% Brij™ 35, 0.02 mg/ml BSA, 0.1 mM Na3VO4, 2 mM DTT, 1% DMSO, where required cofactors are added individually to each kinase reaction.
• 1. Prepare indicated substrate in freshly prepared Base Reaction Buffer • 2. Deliver any required cofactors to the substrate solution above • 3. Deliver indicated kinase (JAK or TrkA) into the substrate solution and gently mix • 4. Deliver compounds in DMSO into the kinase reaction mixture by Acoustic technology (Echo550; nanoliter range), incubate for 20 minutes at room temperature • 5. Deliver 33P-ATP into the reaction mixture to initiate the reaction. • 6. Incubate kinase reaction for 2 hours at room temperature • 7. Reactions are spotted onto P81 ion exchange paper • 8. Detect kinase activity by filter-binding method. PDE4B Phosphodiesterase Assay

Structure (SMILES) | JAK activity
Cc1cnc(N(C)c2ccc3c(c2)COB3O)nc1NC1CCCC1 [B, 5-((4-(cyclopentylamino)-5-methylpyrimidin-2-yl)(methyl)amino)benzo[c][1,2]oxaborol-1(3H)-ol, reference compound] | no JAK activity or significantly decreased JAK activity
Cc1cnc(N(C)c2ccc3c(c2)COB3O)nc1OC1CCCCC1 [A, 5-((4-(cyclohexyloxy)-5-methylpyrimidin-2-yl)(methyl)amino)benzo[c][1,2]oxaborol-1(3H)-ol, reference compound] | no JAK activity or significantly decreased JAK activity

Same assay, conditions: compound list; + = noted target activity, number of * = preference

Structure (SMILES) | Activity Note: JAK
Cc1cnc(Nc2ccc3c(c2)B(O)OC3(C)C)nc1Nc1cccc(S(C)(=O)=O)c1 [3,3-dimethyl-6-((5-methyl-4-((3-(methylsulfonyl)phenyl)amino)pyrimidin-2-yl)amino)benzo[c][1,2]oxaborol-1(3H)-ol] | JAK+**
Cc1cnc(Nc2ccc3c(c2)C(C)OB3O)nc1NC1CCCC1 (centres unmarked) [5-((4-(cyclopentylamino)-5-methylpyrimidin-2-yl)amino)-3-methylbenzo[c][1,2]oxaborol-1(3H)-ol] | JAK+***
Cc1cnc(Nc2ccc3c(c2)B(O)OC3)nc1NC1CCCCC1 [6-((4-(cyclohexylamino)-5-methylpyrimidin-2-yl)amino)benzo[c][1,2]oxaborol-1(3H)-ol] | JAK+*
CCC(CC)Nc1nc(Nc2cc(C)c3c(c2)C(C)OB3O)ncc1C (centres unmarked) [3,7-dimethyl-5-((5-methyl-4-(pentan-3-ylamino)pyrimidin-2-yl)amino)benzo[c][1,2]oxaborol-1(3H)-ol] | JAK+***
Cc1cnc(Nc2ccc3c(c2C)B(O)OC3)nc1Nc1cccc(S(C)(=O)=O)c1 [7-methyl-6-((5-methyl-4-((3-(methylsulfonyl)phenyl)amino)pyrimidin-2-yl)amino)benzo[c][1,2]oxaborol-1(3H)-ol] | JAK+*
Cc1cnc(Nc2ccc3c(c2)C(C)OB3O)nc1Nc1ccccc1 (centres unmarked) [3-methyl-5-((5-methyl-4-(phenylamino)pyrimidin-2-yl)amino)benzo[c][1,2]oxaborol-1(3H)-ol] | JAK+***
Cc1cnc(Nc2cc(Cl)c3c(c2)COB3O)nc1Nc1ccccc1 [7-chloro-5-((5-methyl-4-(phenylamino)pyrimidin-2-yl)amino)benzo[c][1,2]oxaborol-1(3H)-ol] | JAK+***
CCCNc1nc(Nc2ccc3c(c2)B(O)OC3)ncc1I [6-((5-iodo-4-(propylamino)pyrimidin-2-yl)amino)benzo[c][1,2]oxaborol-1(3H)-ol] | JAK+*
OB1OCc2cc(Nc3ncc(Cl)c(NC4CCCC4)n3)cc(Cl)c21 [7-chloro-5-((5-chloro-4-(cyclopentylamino)pyrimidin-2-yl)amino)benzo[c][1,2]oxaborol-1(3H)-ol] | JAK+***
Cc1cnc(Nc2ccc3c(c2)B(O)OC3)nc1N[C@H]1CC[C@H](CO)CC1 [6-((4-(((1r,4r)-4-(hydroxymethyl)cyclohexyl)amino)-5-methylpyrimidin-2-yl)amino)benzo[c][1,2]oxaborol-1(3H)-ol] | JAK+*
OB1OCc2cc(Nc3ncc(Cl)c(NC4CCCC4)n3)cc(C(F)(F)F)c21 [5-((5-chloro-4-(cyclopentylamino)pyrimidin-2-yl)amino)-7-(trifluoromethyl)benzo[c][1,2]oxaborol-1(3H)-ol] | JAK+***
CC1(C)OB(O)c2ccc(Nc3ncc(Cl)c(NC4CCCC4)n3)cc21 [5-((5-chloro-4-(cyclopentylamino)pyrimidin-2-yl)amino)-3,3-dimethylbenzo[c][1,2]oxaborol-1(3H)-ol] | JAK+***
COc1cc(Nc2ncc(C)c(SC)n2)cc2c1B(O)OC2 [7-methoxy-5-((5-methyl-4-(methylthio)pyrimidin-2-yl)amino)benzo[c][1,2]oxaborol-1(3H)-ol] | JAK+**
CCC(CC)Nc1nc(Nc2cc3c(c(C(F)(F)F)c2)B(O)OC3)ncc1C [5-((5-methyl-4-(pentan-3-ylamino)pyrimidin-2-yl)amino)-7-(trifluoromethyl)benzo[c][1,2]oxaborol-1(3H)-ol] | JAK+***
Cc1cnc(Nc2ccc3c(c2)C(C)(C)OB3O)nc1NC1CCCC1 [5-((4-(cyclopentylamino)-5-methylpyrimidin-2-yl)amino)-3,3-dimethylbenzo[c][1,2]oxaborol-1(3H)-ol] | JAK+***
CCc1cc(Nc2nccc(NC3CCCC3)n2)cc2c1B(O)OC2 [5-((4-(cyclopentylamino)pyrimidin-2-yl)amino)-7-ethylbenzo[c][1,2]oxaborol-1(3H)-ol] | JAK+**

These molecules were tested against T1, Recombinant human PDE4B (Homo sapiens, UniProt Q07343) (assay: PDE4B Phosphodiesterase Assay). Details: compared to compounds of the disclosure.
T1 construct: aa 305-end; GST (N); made in house; host or cells: Sf9 insect cells (baculovirus)
T1 sequence (Q07343 305-736 limits assumed): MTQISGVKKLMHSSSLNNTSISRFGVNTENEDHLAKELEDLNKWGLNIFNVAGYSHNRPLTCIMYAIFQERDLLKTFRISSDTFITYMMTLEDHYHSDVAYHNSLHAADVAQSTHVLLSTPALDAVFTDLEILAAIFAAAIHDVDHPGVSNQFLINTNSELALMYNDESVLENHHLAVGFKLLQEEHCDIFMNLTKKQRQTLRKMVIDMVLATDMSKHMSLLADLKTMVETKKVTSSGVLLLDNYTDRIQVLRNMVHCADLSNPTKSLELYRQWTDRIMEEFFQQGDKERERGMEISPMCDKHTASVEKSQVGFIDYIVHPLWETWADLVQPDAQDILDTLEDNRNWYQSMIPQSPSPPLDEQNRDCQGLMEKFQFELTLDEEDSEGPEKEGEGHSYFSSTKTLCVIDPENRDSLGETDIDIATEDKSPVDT
Assay type: biochemical
In short: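 N-terminal GST-tagged human PDE4B (aa 305-end, Sf9-expressed) preincubated 10 min with compound in 10 mM Tris-HCl pH 7.5, 5 mM MgCl2, 0.01% Brij 35, 1 mM DTT, 1% DMSO, then 1 h at room temperature with 1 μM cAMP. AMP detected by Transcreener fluorescence polarization (Ex/Em 620/688), converted to nM product; % activity relative to DMSO.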

Structure (SMILES) | PDE4 activity
Cc1cnc(N(C)c2ccc3c(c2)COB3O)nc1NC1CCCC1 [B, 5-((4-(cyclopentylamino)-5-methylpyrimidin-2-yl)(methyl)amino)benzo[c][1,2]oxaborol-1(3H)-ol, reference compound] | diminish in PDE4 activity
Cc1cnc(N(C)c2ccc3c(c2)COB3O)nc1OC1CCCCC1 [A, 5-((4-(cyclohexyloxy)-5-methylpyrimidin-2-yl)(methyl)amino)benzo[c][1,2]oxaborol-1(3H)-ol, reference compound] | diminish in PDE4 activity
